Data as given in US11331294B2, “Benzoquinone derivative E3330 in combination with chemotherapeutic agents for the treatment of bladder cancer” (Indiana University Research and Technology Corporation, priority 2007, dated 2022).
pIC50: −log10 of the molar value.

What was measured:
UC3 cells = test: Methylene blue cell growth assay UC3; assay type: cell-based; conditions: Homo sapiens, read-out: cell growth-inhibitory IC50
Experimental: (§1) FIGS. 31A & 31B. Treatment with APE1/Ref-1 inhibitors potently blocks bladder cancer cell proliferation and activated Caspase 3/7. […] The IC50 values for FIG. 31A were determined using the methylene blue assay, n=4. […] T24 and UC3 cells were treated with APX2009 and APX2014 at the IC50 and IC90 and monitored over time for activation of capsase 3/7 by an increase in red fluorescence. Time course graphs are shown in FIG. 31B and representative images at 48 hr are shown in FIG. 32A (described more fully below), n=3-4.
(§2) FIGS. 36A-36H. […] In cytokine-induced T24 and UC3 cells NFκB-driven luciferase (FIG. 36A), STAT3-driven luciferase (FIG. 36B), and AP-1-driven luciferase (FIG. 36C) were quantified and normalized via Renilla following treatment with the corresponding cell growth-inhibitory IC50 concentrations. T24 cells were treated with APX2009 (8.5 μM) and APX2014 (6.5 μM), and UC3 cells were treated with APX2009 (6.1 μM) and APX2014 (4.6 μM) for 24 h. (*-p<0.05 APX treated vs vehicle, n=4). […] In the panels of FIGS. 36F & 36G, co-expression of survivin and APE1/Ref-1 was analyzed in superficial (FIG. 36F) and invasive human bladder tumors (FIG. 36G) in patients, and found nearly universal overlap of positivity in both in human samples. This was also true in cisplatin-refractory patients from the tissue microarray specimens (FIG. 36H). […]

T24 cells = test: Methylene blue cell growth assay T24; assay type: cell-based; conditions: Homo sapiens, T-24, read-out: cell growth-inhibitory IC50
Experimental: as §1, §2

NFκB = test: NFκB-driven luciferase reporter; assay type: cell-based, human; conditions: T24 and UC3 cells induced with TNFa, IC50 concentration, 24 h
Experimental: (§3) FIGS. 36A-36H. […] In cytokine-induced T24 and UC3 cells NFκB-driven luciferase (FIG. 36A), STAT3-driven luciferase (FIG. 36B), and AP-1-driven luciferase (FIG. 36C) were quantified and normalized via Renilla following treatment with the corresponding cell growth-inhibitory IC50 concentrations. T24 cells were treated with APX2009 (8.5 μM) and APX2014 (6.5 μM), and UC3 cells were treated with APX2009 (6.1 μM) and APX2014 (4.6 μM) for 24 h. (*-p<0.05 APX treated vs vehicle, n=4). […] In the panels of FIGS. 36F & 36G, co-expression of survivin and APE1/Ref-1 was analyzed in superficial (FIG. 36F) and invasive human bladder tumors (FIG. 36G) in patients, and found nearly universal overlap of positivity in both in human samples. This was also true in cisplatin-refractory patients from the tissue microarray specimens (FIG. 36H).
The transcriptional activity of NFκB, STAT3, and AP-1 is under redox control by APE1/Ref-1. Therefore, NFκB, STAT3, or AP-1 transcriptional activity was quantified following treatment with APE1/Ref-1 redox inhibitors (FIGS. 36A-36C).

survivin and Cyclin D1 = test: Western blot of survival and proliferation proteins in cells; assay type: cell-based, human; conditions: immunoblot
Experimental: as §3
Whole cell extracts were prepared using RIPA (radioimmunoprecipitation) buffer containing protein inhibitors (1:100 PMSF, 1:100 orthovanadate and 1:100 protease inhibitor). Total protein concentration was determined via Lowry or BCA assay. 10-50 μg/well of each lysate was separated by SDS-PAGE using a 12% SDS-polyacrylamide gel. Blots were blocked with 5% nonfat dry milk in 1×TBS for 1 h and incubated overnight with primary antibodies to either APE1/Ref-1 (1:1000 dilution, Novus, NB-100-116), survivin (1:1000, Cell Signaling), Cyclin D1 (1:500, Abcam), PARP-1 (1:1000, Cell Signaling) or GAPDH (1:5000, Cell Signaling). After blots were washed three-six times with TBS-Tween, blots were incubated with HRP-conjugated secondary mouse antibodies (1:5000, Pierce). After washing three-six times with TBS-Tween, blots were visualized by enhanced chemiluminescence (West Pico/West Femto, Pierce).
For further confirmation of a decrease in NFκB and STAT3 transcriptional activity, levels of survivin and Cyclin D1 were examined Both survivin and Cyclin D1 are known to be downstream targets of NFκB and STAT3. […] However, unlike APE1/Ref-1, survivin expression was primarily nuclear in both urothelial confined and invasive lesions.

multiple myeloma cells [1] = test: MTS assay of multiple myeloma cells, combinations (CalcuSyn); assay type: cell-based
Experimental: APX3330 in combination with chemotherapeutic Melphalan. […] Synergistic plots made using CalcuSyn software. APX3330 was either given alone or in combination with melphalan. As an indicator of DNA double stranded breaks (DSBs), the phosphorylation of histone H2AX at Ser^139 was measured with a phosphorylation-specific H2AX antibody from Upstate Cell Signaling Solutions (Waltham, Md.). Cells were treated with melphalan alone or melphalan plus APX3330. After drug treatment, exponentially growing cells were harvested, washed in cold PBS, and lysed in about 100 μL RIPA assay buffer as described above. Protein was quantified and electrophoresed in SDS gel-loading buffer on a 12% SDS-polyacrylamide gel. Mouse monoclonal anti-phosphohistone H2AX (about 1:1000) or anti-actin antibody (about 1:1000; as a loading control, LabVision Corp., NeoMarkers, Fremont, Calif.) was used to probe for protein levels as described previously. Bands were detected using a chemiluminescence kit from Roche Applied Biosciences (Indianapolis, Ind.). The bands were visualized using Bio-Rad Chemidoc XRS (Hercules, Calif.) and quantitated using Chemidoc software, Quantity One 4.6.1. […]
APX3330 in combination with Methoxyamine-multiple myeloma cells. […] Data was calculated using the CalcuSyn software which is based on the Chou-Talalay algorithm (Chou-Talalay; Advances in Enzyme Regulation 22, 27-55). […]

[2] = Preliminary in vivo safety in mice (body weight); conditions: male mice, under 50 mg/kg
[3] = target: redox function of Ape1/Ref-1 (Homo sapiens, UniProt P27695); test: Selective inhibition of the redox function of Ape1/Ref-1
CB-ECFC cells = test: Capillary tube formation assay on […]; assay type: cell-based; conditions: about eight hours after seeding
Experimental: Inhibition of capillary tube formation. The capillary tube formation assay was performed using CB-ECFC cells plated on […]® and treated with APX3330 or control media. ECFCs were cultured as previously described (Blood, 1 Nov. 2004, Vol. 104, No. 9, pp. 2752-2760). ECFC colonies appeared between 5 and 22 days of culture. Colonies were counted by visual inspection using an inverted microscope (Olympus, Lake Success, N.Y.) under ×40 magnification. Cells were passaged as previously described. Blood, 1 Nov. 2004, Vol. 104, No. 9, pp. 2752-2760.)
The tube formation assay was performed as described previously (J. Biol. Chem. 274 (1999), pp. […]). Various concentrations of APX3330 were given to CB-ECFCs for about 30 min at room temperature before seeding and plated onto the layer of […]® at a density of about 1×10^4 cells/well. After about eight hours, the enclosed networks of complete tubes from randomly chosen fields were counted and photographed under a microscope.

multiple myeloma cells [4] = test: Phospho-histone H2AX western blot (DNA double stranded breaks); assay type: cell-based; conditions: combination with melphalan
Experimental: APX3330 in combination with chemotherapeutic Melphalan. […] Synergistic plots made using CalcuSyn software. APX3330 was either given alone or in combination with melphalan. As an indicator of DNA double stranded breaks (DSBs), the phosphorylation of histone H2AX at Ser^139 was measured with a phosphorylation-specific H2AX antibody from Upstate Cell Signaling Solutions (Waltham, Md.). Cells were treated with melphalan alone or melphalan plus APX3330. After drug treatment, exponentially growing cells were harvested, washed in cold PBS, and lysed in about 100 μL RIPA assay buffer as described above. Protein was quantified and electrophoresed in SDS gel-loading buffer on a 12% SDS-polyacrylamide gel. Mouse monoclonal anti-phosphohistone H2AX (about 1:1000) or anti-actin antibody (about 1:1000; as a loading control, LabVision Corp., NeoMarkers, Fremont, Calif.) was used to probe for protein levels as described previously. Bands were detected using a chemiluminescence kit from Roche Applied Biosciences (Indianapolis, Ind.). The bands were visualized using Bio-Rad Chemidoc XRS (Hercules, Calif.) and quantitated using Chemidoc software, Quantity One 4.6.1.

redox function of Ape1/Ref-1, sequence (P27695 whole entry): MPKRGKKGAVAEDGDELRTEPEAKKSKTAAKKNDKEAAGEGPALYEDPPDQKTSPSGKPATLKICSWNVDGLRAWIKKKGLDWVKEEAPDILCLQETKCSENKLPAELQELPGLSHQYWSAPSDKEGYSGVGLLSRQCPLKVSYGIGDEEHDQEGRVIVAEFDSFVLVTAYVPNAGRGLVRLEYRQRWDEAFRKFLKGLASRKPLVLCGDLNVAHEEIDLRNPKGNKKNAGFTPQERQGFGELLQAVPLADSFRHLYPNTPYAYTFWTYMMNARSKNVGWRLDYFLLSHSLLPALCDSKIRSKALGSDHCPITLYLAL

| Compound | pIC50 (UC3 cells) | pIC50 (T24 cells) | reduction of NFκB-driven luciferase activity (NFκB) | expression of c-Myc, Bcl-2, Bcl-XL (survivin and Cyclin D1) | expression of survivin and Cyclin D1 (survivin and Cyclin D1) | killing of multiple myeloma cells in combination with melphalan (multiple myeloma cells [1]; combination with melphalan, 72 hours) | killing of multiple myeloma cells in combination with methoxyamine (multiple myeloma cells [1]; combination with methoxyamine) | mouse toxicity [2] | inhibition of the redox function of Ape1/Ref-1 [3] | tube formation (CB-ECFC cells) | DNA double stranded breaks (phospho-H2AX), melphalan plus APX3330 compared to melphalan alone (multiple myeloma cells [4]) |
| --- | --- | --- | --- | --- | --- | --- | --- | --- | --- | --- | --- |
| CCC/C(=C\C1=C(OC)C(=O)c2ccccc2C1=O)C(=O)N(CC)CC [APX2009, [(2E)-2-[(3-methoxy-1,4-dioxo-1,4-dihydronaphthalen-2-yl)methylidene]-N,N-diethylpentanamide]] | 5.21 | 5.07 | 2 fold | No change in expression | significantly down-regulated | – | – | – | – | – | – |
| CCCCCCCCC/C(=C\C1=C(C)C(=O)C(OC)=C(OC)C1=O)C(=O)O [APX3330] | – | – | – | – | – | synergistically enhance the killing of multiple myeloma cells | enhanced killing of multiple myeloma cells | No mouse toxicity was observed | selectively inhibited | inhibit tube formation | increase in DSBs |
